The target of experiment [1] is T1, Acetylcholinesterase (Homo sapiens, UniProt P22303). The experiment can be described thus: Inhibition of human AChE at 100 uM using acetylthiocholine as substrate by Ellman's method.
Experiment [2] concerns the target T1, Acetylcholinesterase. The experiment can be described thus: Inhibition of human AChE using acetylthiocholine as substrate by Ellman's method.
Experiment [3] can be described thus: Selectivity index, ratio of IC50 for human BuChe to IC50 for human AChE.
Experiment [4] deals with T2, Cholinesterase (Homo sapiens, UniProt P06276). The experiment can be described thus: Inhibition of human BuChE at 100 uM using butyrylthiocholine chloride as substrate by Ellman's method. On the technique in general: Ellman's reagent forms a yellow product with free thiols.
For experiment [5], the target named is T2, Cholinesterase. The experiment can be described thus: Inhibition of human BuChE using butyrylthiocholine chloride as substrate by Ellman's method.
Experiment [6] can be described thus: Selectivity index, ratio of IC50 for human AChE to IC50 for human BuChe.

As usually defined, the inhibition is the percentage by which the read-out fell short of the control. Low values mean a response near the control, high ones a response far below the control. By IC50 is commonly meant the concentration at which inhibition is half-maximal.

T1 sequence (P22303 whole entry): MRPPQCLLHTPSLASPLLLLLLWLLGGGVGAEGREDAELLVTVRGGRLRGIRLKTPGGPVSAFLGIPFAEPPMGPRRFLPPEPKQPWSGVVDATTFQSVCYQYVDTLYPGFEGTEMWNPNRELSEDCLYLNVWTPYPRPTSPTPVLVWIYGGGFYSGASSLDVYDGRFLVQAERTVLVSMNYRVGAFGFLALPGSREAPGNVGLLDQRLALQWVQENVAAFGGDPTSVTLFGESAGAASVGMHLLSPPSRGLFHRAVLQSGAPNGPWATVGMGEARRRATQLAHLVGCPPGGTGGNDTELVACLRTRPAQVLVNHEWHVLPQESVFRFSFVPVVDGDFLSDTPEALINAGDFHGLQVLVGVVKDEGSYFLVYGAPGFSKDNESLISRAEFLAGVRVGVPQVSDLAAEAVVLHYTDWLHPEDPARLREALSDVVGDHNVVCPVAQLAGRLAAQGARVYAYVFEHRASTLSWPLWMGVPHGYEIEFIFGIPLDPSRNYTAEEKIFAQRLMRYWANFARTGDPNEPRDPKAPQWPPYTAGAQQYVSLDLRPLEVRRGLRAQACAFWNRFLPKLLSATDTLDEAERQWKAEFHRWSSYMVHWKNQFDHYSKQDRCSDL
T2 sequence (P06276 whole entry): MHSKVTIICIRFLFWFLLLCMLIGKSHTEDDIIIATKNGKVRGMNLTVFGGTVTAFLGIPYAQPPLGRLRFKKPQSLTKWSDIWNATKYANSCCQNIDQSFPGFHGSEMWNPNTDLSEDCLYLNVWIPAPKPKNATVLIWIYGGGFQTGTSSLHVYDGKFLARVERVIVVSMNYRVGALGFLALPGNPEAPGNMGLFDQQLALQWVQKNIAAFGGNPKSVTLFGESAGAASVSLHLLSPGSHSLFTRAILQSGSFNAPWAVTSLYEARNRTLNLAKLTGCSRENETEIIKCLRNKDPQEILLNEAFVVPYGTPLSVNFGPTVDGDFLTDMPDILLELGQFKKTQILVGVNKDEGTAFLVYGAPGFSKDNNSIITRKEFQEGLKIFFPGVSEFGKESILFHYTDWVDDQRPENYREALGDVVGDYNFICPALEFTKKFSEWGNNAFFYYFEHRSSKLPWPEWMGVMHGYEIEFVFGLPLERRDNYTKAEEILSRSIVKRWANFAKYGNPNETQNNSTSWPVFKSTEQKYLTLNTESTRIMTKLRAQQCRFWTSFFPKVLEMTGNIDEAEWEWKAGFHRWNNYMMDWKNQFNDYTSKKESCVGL

Turning to `CO[C@H]1C[C@H]2C(=C[C@@H]1OC(=O)C1CCCCC1)[C@H]1CN2Cc2cc3c(cc21)OCO3`, the inhibition on Acetylcholinesterase [1] came out at 1.2%; at Cholinesterase [4], 20.8%. Moreover, the concentration for half-maximal inhibition (IC50) at Acetylcholinesterase [2] and against Cholinesterase [5] was over 100 µM each time. In addition, the Selectivity Index in experiment [3] was under 0.02; in experiment [6], over 57.8.

Source of the values: ChEMBL document CHEMBL5029165, “Derivatives of montanine-type alkaloids and their implication for the treatment of Alzheimer's disease: Synthesis, biological activity and in silico study” (Bioorg Med Chem Lett, 2021).
